Test results reported in ChEMBL document CHEMBL1147505, “Efficient and chemoselective N-acylation of 10-amino-7-ethyl camptothecin with poly(ethylene glycol)” (2004).
Residues, ends and D or L forms follow the SMILES beside them. *: point of attachment. X2 = CCc1c2c(nc3ccc(N*)cc13)-c1cc3c(c(=O)n1C2)COC(=O)[C@]3(O)CC; X1 = COCCOC(=O)*

Experiments:
Mus musculus [1] = assay: Survival time of CDF1 mice inoculated with leukemia P388 cells determined after 40 days of intravenous administration of compound at 20 mg/kg on days 1, 5 and 9; format: functional
Mus musculus [2] = organism: Mus musculus; assay: Survival rate was determined as the ratio of mean survival days of treated group of mice to that of control group; format: functional

SMILES	Survival time (Mus musculus [1]) [days]	T/C (Mus musculus [2]) [%]
COc1cccc2c1C(=O)c1c(O)c3c(c(O)c1C2=O)C[C@@](O)(C(=O)CO)C[C@@H]3O[C@H]1C[C@H](N)[C@H](O)[C@H](C)O1 [DOXORUBICIN]	>14	>183
CCc1c2c(nc3ccc(OC(=O)N4CCC(N5CCCCC5)CC4)cc13)-c1cc3c(c(=O)n1C2)COC(=O)[C@]3(O)CC [IRINOTECAN]	–	172
CCc1c2c(nc3ccc(NC(=O)CNC(=O)[C@H](Cc4ccccc4)NC(=O)[C@H](CC(C)C)NC(=O)CNC(=O)OCCOC)cc13)-c1cc3c(c(=O)n1C2)COC(=O)[C@]3(O)CC (X1-GLFG-X2)	13	170
